Measurements: PMC11864979, “First-in-class ultralong-target-residence-time p38α inhibitors as a mitosis-targeted therapy for colorectal cancer” (Nature Cancer, 2025)
Where two headings read alike, the source gives them in different places.

Experiments:
Assay in all cases: selectivity profiling in a panel of 340 wild-type kinases (Reaction Biology Europe)
Type in all cases: binding
340 wild-type kinases [1] = target: T1, 340 wild-type kinases (Homo sapiens, UniProt P08069)
T1 construct: purchased Reaction Biology Europe

340 wild-type kinases [2] = target: T2, 340 wild-type kinases (Homo sapiens, UniProt P43403)
T2 construct: purchased Reaction Biology Europe
T2 sequence (P43403 1-619): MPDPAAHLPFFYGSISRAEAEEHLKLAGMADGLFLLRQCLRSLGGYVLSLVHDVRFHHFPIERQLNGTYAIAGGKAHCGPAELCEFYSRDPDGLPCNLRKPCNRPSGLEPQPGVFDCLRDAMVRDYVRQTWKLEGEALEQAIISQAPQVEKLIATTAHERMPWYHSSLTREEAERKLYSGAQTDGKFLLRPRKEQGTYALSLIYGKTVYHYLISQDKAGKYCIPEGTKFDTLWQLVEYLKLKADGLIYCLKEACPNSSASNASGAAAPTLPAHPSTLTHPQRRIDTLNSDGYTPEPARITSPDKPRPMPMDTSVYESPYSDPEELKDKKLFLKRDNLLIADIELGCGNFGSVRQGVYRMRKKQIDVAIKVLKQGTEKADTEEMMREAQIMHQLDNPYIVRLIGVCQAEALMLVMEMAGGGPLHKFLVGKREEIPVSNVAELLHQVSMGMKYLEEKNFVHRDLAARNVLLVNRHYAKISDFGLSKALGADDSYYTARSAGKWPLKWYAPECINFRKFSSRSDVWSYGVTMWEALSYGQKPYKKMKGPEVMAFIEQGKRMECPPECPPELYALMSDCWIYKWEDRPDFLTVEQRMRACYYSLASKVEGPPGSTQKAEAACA

340 wild-type kinases [3] = target: T3, 340 wild-type kinases (Homo sapiens, UniProt P51617)
T3 construct: purchased Reaction Biology Europe

340 wild-type kinases [4] = target: T4, 340 wild-type kinases (Homo sapiens, UniProt P53355)
T4 construct: purchased Reaction Biology Europe

340 wild-type kinases [5] = target: T5, 340 wild-type kinases (Homo sapiens, UniProt P57059)
T5 construct: purchased Reaction Biology Europe

340 wild-type kinases [6] = target: T6, 340 wild-type kinases (Homo sapiens, UniProt Q00536)
T6 construct: purchased Reaction Biology Europe

340 wild-type kinases [7] = target: T7, 340 wild-type kinases (Homo sapiens, UniProt Q8IZL9)
T7 construct: purchased Reaction Biology Europe

340 wild-type kinases [8] = target: T8, 340 wild-type kinases (Homo sapiens, UniProt Q96KB5)
T8 construct: purchased Reaction Biology Europe
T8 sequence (Q96KB5 1-322): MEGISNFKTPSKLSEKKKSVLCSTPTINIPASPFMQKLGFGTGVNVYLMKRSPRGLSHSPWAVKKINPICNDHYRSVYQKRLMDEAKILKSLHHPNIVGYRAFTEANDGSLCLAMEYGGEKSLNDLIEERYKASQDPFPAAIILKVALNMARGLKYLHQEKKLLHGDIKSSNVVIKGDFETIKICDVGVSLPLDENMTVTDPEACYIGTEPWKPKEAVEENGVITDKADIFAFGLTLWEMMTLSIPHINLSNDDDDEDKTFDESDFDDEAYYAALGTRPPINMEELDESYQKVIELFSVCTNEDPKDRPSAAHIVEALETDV

340 wild-type kinases [9] = target: T9, 340 wild-type kinases (Homo sapiens, UniProt Q99759)
T9 construct: purchased Reaction Biology Europe
T9 sequence (Q99759 1-626): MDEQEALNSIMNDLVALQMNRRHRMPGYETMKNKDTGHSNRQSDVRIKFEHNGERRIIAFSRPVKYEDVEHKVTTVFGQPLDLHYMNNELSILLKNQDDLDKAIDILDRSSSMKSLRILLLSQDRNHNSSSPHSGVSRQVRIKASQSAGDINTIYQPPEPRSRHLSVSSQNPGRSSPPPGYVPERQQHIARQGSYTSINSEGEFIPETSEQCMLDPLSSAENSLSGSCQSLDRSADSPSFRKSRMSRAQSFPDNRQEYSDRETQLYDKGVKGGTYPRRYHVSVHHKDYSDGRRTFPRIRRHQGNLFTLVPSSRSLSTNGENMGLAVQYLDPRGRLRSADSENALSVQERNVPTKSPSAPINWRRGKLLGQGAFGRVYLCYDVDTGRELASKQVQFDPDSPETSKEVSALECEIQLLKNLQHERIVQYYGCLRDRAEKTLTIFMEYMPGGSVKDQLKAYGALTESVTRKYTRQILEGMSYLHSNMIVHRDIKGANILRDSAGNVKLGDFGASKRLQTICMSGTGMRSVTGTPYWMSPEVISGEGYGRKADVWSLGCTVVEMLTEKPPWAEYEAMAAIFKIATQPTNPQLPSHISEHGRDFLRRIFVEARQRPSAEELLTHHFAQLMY

T4 sequence (P53355 whole entry): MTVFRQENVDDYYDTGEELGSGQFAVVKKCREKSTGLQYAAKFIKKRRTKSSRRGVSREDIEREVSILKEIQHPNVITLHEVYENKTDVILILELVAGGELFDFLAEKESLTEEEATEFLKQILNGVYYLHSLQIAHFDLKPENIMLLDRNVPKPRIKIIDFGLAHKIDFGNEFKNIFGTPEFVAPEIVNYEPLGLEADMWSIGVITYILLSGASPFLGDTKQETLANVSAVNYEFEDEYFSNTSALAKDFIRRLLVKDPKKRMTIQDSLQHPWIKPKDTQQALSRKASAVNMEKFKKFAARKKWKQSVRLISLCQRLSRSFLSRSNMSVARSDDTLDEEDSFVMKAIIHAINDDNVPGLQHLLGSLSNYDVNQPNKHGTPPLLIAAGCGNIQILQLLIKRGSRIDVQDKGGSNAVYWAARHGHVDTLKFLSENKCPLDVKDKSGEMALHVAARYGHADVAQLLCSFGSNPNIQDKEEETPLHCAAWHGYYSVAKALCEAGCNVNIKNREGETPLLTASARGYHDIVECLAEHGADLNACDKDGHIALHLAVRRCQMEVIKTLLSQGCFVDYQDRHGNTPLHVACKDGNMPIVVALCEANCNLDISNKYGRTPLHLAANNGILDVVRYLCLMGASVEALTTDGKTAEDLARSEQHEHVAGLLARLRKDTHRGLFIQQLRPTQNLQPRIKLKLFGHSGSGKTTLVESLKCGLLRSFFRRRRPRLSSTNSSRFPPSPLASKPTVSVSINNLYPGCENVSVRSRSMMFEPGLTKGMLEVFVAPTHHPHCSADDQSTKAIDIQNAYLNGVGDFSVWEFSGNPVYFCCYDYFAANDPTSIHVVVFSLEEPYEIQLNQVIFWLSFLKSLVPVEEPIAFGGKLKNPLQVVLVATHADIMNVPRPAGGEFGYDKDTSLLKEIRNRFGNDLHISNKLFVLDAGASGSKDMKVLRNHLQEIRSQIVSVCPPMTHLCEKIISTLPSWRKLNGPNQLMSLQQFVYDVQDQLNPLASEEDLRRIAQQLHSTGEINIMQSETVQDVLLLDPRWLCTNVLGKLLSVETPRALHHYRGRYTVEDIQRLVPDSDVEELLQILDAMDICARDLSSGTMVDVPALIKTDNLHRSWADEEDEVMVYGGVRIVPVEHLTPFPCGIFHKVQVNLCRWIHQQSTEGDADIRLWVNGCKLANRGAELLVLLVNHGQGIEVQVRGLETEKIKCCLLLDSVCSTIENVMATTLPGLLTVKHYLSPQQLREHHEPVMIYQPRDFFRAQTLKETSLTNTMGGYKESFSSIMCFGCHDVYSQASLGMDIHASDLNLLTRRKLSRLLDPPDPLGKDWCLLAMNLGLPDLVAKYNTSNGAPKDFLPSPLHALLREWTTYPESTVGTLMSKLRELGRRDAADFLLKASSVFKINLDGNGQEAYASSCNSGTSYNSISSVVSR
T5 sequence (P57059 whole entry): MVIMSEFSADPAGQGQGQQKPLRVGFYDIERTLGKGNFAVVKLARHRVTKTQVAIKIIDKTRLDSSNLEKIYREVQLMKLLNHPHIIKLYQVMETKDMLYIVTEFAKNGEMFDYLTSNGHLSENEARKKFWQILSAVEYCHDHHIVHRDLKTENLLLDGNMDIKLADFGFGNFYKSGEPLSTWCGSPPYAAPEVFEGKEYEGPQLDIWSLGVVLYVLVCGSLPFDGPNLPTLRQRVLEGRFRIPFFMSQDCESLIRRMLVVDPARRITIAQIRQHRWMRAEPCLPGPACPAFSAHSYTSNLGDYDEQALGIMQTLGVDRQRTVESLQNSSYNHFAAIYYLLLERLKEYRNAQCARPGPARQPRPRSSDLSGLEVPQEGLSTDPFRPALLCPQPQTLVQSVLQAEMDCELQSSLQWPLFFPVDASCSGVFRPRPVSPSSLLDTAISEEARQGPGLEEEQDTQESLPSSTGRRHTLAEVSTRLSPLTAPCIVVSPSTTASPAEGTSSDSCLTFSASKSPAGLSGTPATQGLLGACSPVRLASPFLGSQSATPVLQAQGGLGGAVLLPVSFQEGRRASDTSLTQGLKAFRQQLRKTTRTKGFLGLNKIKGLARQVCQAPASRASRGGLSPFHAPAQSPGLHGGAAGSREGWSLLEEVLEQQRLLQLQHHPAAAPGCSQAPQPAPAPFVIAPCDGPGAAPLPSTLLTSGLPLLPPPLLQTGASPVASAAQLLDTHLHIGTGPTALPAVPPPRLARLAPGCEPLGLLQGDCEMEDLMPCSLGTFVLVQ
T7 sequence (Q8IZL9 whole entry): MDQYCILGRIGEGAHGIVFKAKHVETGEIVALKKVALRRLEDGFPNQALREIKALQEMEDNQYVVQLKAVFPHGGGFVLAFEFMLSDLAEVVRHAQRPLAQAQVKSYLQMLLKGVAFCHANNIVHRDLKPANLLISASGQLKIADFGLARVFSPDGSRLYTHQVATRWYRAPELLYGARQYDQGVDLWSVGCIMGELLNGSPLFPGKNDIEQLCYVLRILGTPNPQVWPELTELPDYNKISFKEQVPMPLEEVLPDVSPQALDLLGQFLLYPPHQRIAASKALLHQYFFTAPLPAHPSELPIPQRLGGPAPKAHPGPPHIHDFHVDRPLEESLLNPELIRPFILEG
T1 sequence (P08069 31-1367): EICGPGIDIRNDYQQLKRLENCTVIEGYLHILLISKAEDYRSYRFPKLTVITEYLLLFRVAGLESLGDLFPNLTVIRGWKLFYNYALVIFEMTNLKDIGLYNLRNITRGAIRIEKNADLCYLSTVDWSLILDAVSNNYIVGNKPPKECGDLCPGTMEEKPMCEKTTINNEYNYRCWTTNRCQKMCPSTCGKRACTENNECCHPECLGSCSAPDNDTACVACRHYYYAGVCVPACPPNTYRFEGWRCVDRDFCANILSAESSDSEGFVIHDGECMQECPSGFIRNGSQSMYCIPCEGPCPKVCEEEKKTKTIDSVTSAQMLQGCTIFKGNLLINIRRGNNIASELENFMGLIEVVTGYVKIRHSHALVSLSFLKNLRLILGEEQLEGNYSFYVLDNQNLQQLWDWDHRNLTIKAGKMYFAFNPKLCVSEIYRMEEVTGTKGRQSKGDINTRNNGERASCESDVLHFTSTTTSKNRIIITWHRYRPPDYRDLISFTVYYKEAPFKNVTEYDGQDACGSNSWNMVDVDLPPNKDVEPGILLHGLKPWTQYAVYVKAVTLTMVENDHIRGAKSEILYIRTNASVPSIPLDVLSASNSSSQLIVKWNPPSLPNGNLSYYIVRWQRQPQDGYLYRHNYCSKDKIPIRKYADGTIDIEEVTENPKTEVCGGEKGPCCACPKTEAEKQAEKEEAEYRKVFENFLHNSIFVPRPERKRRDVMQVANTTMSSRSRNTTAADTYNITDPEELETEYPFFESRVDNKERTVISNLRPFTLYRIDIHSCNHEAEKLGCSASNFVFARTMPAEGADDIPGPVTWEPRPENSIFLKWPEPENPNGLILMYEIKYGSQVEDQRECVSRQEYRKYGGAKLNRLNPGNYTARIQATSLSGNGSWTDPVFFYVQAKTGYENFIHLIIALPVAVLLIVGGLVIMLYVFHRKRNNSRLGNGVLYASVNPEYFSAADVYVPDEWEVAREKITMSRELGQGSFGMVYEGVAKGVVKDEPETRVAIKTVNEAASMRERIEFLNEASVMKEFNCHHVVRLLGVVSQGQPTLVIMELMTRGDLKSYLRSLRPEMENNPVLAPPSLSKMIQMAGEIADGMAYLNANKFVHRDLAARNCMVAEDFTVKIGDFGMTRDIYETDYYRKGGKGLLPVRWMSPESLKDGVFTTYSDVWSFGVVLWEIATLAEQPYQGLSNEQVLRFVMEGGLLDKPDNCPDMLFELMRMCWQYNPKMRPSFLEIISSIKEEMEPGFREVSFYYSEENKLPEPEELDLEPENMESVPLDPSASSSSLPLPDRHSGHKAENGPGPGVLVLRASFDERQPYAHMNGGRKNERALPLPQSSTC
T6 sequence (Q00536 whole entry): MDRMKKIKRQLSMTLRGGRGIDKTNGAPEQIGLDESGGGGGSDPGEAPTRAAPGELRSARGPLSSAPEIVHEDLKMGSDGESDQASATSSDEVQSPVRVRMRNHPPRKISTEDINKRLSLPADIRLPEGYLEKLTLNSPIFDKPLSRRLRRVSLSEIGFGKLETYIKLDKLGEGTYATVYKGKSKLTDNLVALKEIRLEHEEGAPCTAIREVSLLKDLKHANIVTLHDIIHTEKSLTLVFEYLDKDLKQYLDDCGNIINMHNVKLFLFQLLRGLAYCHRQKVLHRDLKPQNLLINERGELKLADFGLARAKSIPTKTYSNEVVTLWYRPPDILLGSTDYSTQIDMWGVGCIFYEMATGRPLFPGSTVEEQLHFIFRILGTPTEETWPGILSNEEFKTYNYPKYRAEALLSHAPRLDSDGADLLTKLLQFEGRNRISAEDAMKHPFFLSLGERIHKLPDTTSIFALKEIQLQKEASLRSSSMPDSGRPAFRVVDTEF
T3 sequence (P51617 whole entry): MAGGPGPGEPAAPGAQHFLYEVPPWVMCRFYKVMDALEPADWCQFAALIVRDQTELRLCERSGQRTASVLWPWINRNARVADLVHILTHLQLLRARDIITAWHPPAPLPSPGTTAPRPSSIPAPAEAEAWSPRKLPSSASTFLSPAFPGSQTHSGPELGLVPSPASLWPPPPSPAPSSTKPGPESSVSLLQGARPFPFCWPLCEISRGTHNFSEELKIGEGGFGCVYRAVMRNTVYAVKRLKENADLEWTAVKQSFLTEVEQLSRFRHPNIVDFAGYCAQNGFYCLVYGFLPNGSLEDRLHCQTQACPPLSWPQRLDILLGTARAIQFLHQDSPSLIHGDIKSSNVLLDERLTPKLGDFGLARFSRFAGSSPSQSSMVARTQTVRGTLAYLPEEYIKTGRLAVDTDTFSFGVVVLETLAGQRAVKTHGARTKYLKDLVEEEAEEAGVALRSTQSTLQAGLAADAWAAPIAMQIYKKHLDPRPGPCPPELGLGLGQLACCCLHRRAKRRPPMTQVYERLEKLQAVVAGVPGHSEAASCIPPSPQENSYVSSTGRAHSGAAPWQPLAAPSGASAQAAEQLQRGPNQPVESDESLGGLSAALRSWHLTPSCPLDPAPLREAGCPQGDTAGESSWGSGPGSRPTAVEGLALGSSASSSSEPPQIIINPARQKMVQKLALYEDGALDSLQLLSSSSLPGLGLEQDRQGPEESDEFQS

Question: For `CNC(=O)c1ccc2c(c1)C(=O)c1ccc(Nc3ccc(F)c(NC(=O)C4CC4)c3)cc1CC2` [Compound 2015], which remaining activity at 0.2 µM (340 wild-type kinases [1]; 0.2 µM 2015, read-out: IGF1R residual activity) is on record?
Answer: Its remaining activity at 0.2 µM is 109%.

Question: And the remaining activity at 1 µM (340 wild-type kinases [1]; 1 µM 2015, read-out: IGF1R residual activity)?
Answer: Its remaining activity at 1 µM is 97.4%.

Question: What about the remaining activity at 0.2 µM (340 wild-type kinases [1]; IGF1R, 0.2 µM, read-out: residual activity) of the same compound?
Answer: Its remaining activity at 0.2 µM is 109%.

Question: What about the remaining activity at 1 µM (340 wild-type kinases [1]; IGF1R, 1 µM, read-out: residual activity) of the same compound?
Answer: The remaining activity at 1 µM was 97.4%.

Question: And the remaining activity at 0.2 µM (340 wild-type kinases [2]; 0.2 µM 2015, read-out: ZAP70 residual activity)?
Answer: Its remaining activity at 0.2 µM is 122%.

Question: And the remaining activity at 1 µM (340 wild-type kinases [2]; 1 µM 2015, read-out: ZAP70 residual activity)?
Answer: Its remaining activity at 1 µM is 100%.

Question: What about the remaining activity at 0.2 µM (340 wild-type kinases [2]; ZAP70, 0.2 µM, read-out: residual activity) of the same compound?
Answer: Its remaining activity at 0.2 µM is 122%.

Question: What about the remaining activity at 1 µM (340 wild-type kinases [2]; ZAP70, 1 µM, read-out: residual activity) of the same compound?
Answer: Its remaining activity at 1 µM is 100%.

Question: What about the remaining activity at 0.2 µM (340 wild-type kinases [3]; 0.2 µM 2015, read-out: IRAK1 residual activity) of the same compound?
Answer: The remaining activity at 0.2 µM was 108%.

Question: What about the remaining activity at 1 µM (340 wild-type kinases [3]; 1 µM 2015, read-out: IRAK1 residual activity) of the same compound?
Answer: The remaining activity at 1 µM was 94.2%.

Question: What about the remaining activity at 0.2 µM (340 wild-type kinases [3]; IRAK1, 0.2 µM, read-out: residual activity) of the same compound?
Answer: Its remaining activity at 0.2 µM is 108%.

Question: And the remaining activity at 1 µM (340 wild-type kinases [3]; IRAK1, 1 µM, read-out: residual activity)?
Answer: The remaining activity at 1 µM was 94.2%.

Question: What about the remaining activity at 0.2 µM (340 wild-type kinases [4]; 0.2 µM 2015, read-out: DAPK1 residual activity) of the same compound?
Answer: The remaining activity at 0.2 µM was 128%.

Question: What about the remaining activity at 1 µM (340 wild-type kinases [4]; 1 µM 2015, read-out: DAPK1 residual activity) of the same compound?
Answer: Its remaining activity at 1 µM is 135%.

Question: And the remaining activity at 0.2 µM (340 wild-type kinases [4]; DAPK1, 0.2 µM, read-out: residual activity)?
Answer: The remaining activity at 0.2 µM was 128%.

Question: What about the remaining activity at 1 µM (340 wild-type kinases [4]; DAPK1, 1 µM, read-out: residual activity) of the same compound?
Answer: Its remaining activity at 1 µM is 135%.

Question: What about the remaining activity at 0.2 µM (340 wild-type kinases [5]; 0.2 µM 2015, read-out: SIK1 residual activity) of the same compound?
Answer: Its remaining activity at 0.2 µM is 90.9%.

Question: And the remaining activity at 1 µM (340 wild-type kinases [5]; 1 µM 2015, read-out: SIK1 residual activity)?
Answer: The remaining activity at 1 µM was 85.5%.

Question: What about the remaining activity at 0.2 µM (340 wild-type kinases [5]; SIK1, 0.2 µM, read-out: residual activity) of the same compound?
Answer: Its remaining activity at 0.2 µM is 90.9%.

Question: And the remaining activity at 1 µM (340 wild-type kinases [5]; SIK1, 1 µM, read-out: residual activity)?
Answer: The remaining activity at 1 µM was 85.5%.

Question: What about the remaining activity at 0.2 µM (340 wild-type kinases [6]; 0.2 µM 2015, read-out: CDK16/CycY residual activity) of the same compound?
Answer: Its remaining activity at 0.2 µM is 99.3%.

Question: And the remaining activity at 1 µM (340 wild-type kinases [6]; 1 µM 2015, read-out: CDK16/CycY residual activity)?
Answer: Its remaining activity at 1 µM is 96.8%.

Question: And the remaining activity at 0.2 µM (340 wild-type kinases [6]; CDK16/CycY, 0.2 µM, read-out: residual activity)?
Answer: Its remaining activity at 0.2 µM is 99.3%.

Question: And the remaining activity at 1 µM (340 wild-type kinases [6]; CDK16/CycY, 1 µM, read-out: residual activity)?
Answer: Its remaining activity at 1 µM is 96.8%.

Question: And the remaining activity at 0.2 µM (340 wild-type kinases [7]; 0.2 µM 2015, read-out: CDK20/CycH residual activity)?
Answer: The remaining activity at 0.2 µM was 107%.

Question: What about the remaining activity at 0.2 µM (340 wild-type kinases [7]; 0.2 µM 2015, read-out: CDK20/CycT1 residual activity) of the same compound?
Answer: The remaining activity at 0.2 µM was 103%.

Question: What about the remaining activity at 1 µM (340 wild-type kinases [7]; 1 µM 2015, read-out: CDK20/CycH residual activity) of the same compound?
Answer: The remaining activity at 1 µM was 97.2%.

Question: And the remaining activity at 1 µM (340 wild-type kinases [7]; 1 µM 2015, read-out: CDK20/CycT1 residual activity)?
Answer: The remaining activity at 1 µM was 96.3%.

Question: What about the remaining activity at 0.2 µM (340 wild-type kinases [7]; CDK20/CycH, 0.2 µM, read-out: residual activity) of the same compound?
Answer: Its remaining activity at 0.2 µM is 107%.

Question: What about the remaining activity at 1 µM (340 wild-type kinases [7]; CDK20/CycH, 1 µM, read-out: residual activity) of the same compound?
Answer: The remaining activity at 1 µM was 97.2%.

Question: And the remaining activity at 0.2 µM (340 wild-type kinases [7]; CDK20/CycT1, 0.2 µM, read-out: residual activity)?
Answer: The remaining activity at 0.2 µM was 103%.

Question: What about the remaining activity at 1 µM (340 wild-type kinases [7]; CDK20/CycT1, 1 µM, read-out: residual activity) of the same compound?
Answer: The remaining activity at 1 µM was 96.3%.

Question: And the remaining activity at 0.2 µM (340 wild-type kinases [8]; 0.2 µM 2015, read-out: PBK residual activity)?
Answer: Its remaining activity at 0.2 µM is 96.5%.

Question: What about the remaining activity at 1 µM (340 wild-type kinases [8]; 1 µM 2015, read-out: PBK residual activity) of the same compound?
Answer: The remaining activity at 1 µM was 79.7%.

Question: And the remaining activity at 0.2 µM (340 wild-type kinases [8]; PBK, 0.2 µM, read-out: residual activity)?
Answer: The remaining activity at 0.2 µM was 96.5%.

Question: And the remaining activity at 1 µM (340 wild-type kinases [8]; PBK, 1 µM, read-out: residual activity)?
Answer: Its remaining activity at 1 µM is 79.7%.

Question: And the remaining activity at 0.2 µM (340 wild-type kinases [9]; 0.2 µM 2015, read-out: MEKK3 residual activity)?
Answer: Its remaining activity at 0.2 µM is 105%.

Question: What about the remaining activity at 1 µM (340 wild-type kinases [9]; 1 µM 2015, read-out: MEKK3 residual activity) of the same compound?
Answer: The remaining activity at 1 µM was 101%.

Question: And the remaining activity at 0.2 µM (340 wild-type kinases [9]; MEKK3, 0.2 µM, read-out: residual activity)?
Answer: The remaining activity at 0.2 µM was 105%.

Question: What about the remaining activity at 1 µM (340 wild-type kinases [9]; MEKK3, 1 µM, read-out: residual activity) of the same compound?
Answer: The remaining activity at 1 µM was 101%.
